Results from patent US20050014743A1, “Combination of an NMDA receptor antagonist and a selective serotonin reuptake inhibitor for the treatment of depression and other mood disorders” (Forest Laboratories, Inc., priority 2003, published 2005).
“Also recorded” adds a separate entry of the source.

Legend:
C57/B1 mice [1] = experiment: locomotor activity test (actometers, 6 min); assay type: in vivo, mouse
C57/B1 mice [2] = experiment: mouse tail suspension test (TST); assay type: in vivo; conditions: for immobility: given with vehicle; for duration of immobility: monotherapy, doses 5-20 mg/kg IP
5-HT3 receptor = conditions: cited from earlier work; for inhibition of 5HT3-mediated current: memantine: native N1E-115 and heterologous HEK-293 cells
NMDA receptor = molecular target: T1, NMDA receptor (Rattus norvegicus, UniProt P35439); conditions: rat hippocampal slices; cited from earlier work
T1 construct: NMDA receptor-mediated currents (in rat hippocampal slices); from tissue; host or cells: rat hippocampal slices

Structure (SMILES)	locomotor activity (C57/B1 mice [1]; mouse, in vivo)	immobility (C57/B1 mice [2]; 20 mg/kg IP)	duration of immobility (C57/B1 mice [2])	inhibition of 5HT3-mediated current (5-HT3 receptor)	also measured
CNCCC(Oc1ccc(C(F)(F)F)cc1)c1ccccc1 (stereo not shown) [FLU, fluoxetine]	did not change locomotor activity; also recorded: generally did not affect locomotor activity	decreased immobility	decrease in the duration of immobility	–	–
CN(C)CCCN1c2ccccc2CCc2ccccc21 [IMI, imipramine]	decreased it; also recorded: decreased locomotor activity	decreased immobility	decrease in the duration of immobility	–	locomotor activity (C57/B1 mice [1]; mouse, in vivo, ip, 20 mg/kg): decreased locomotor activity
CC1(C)CC(C)(C)CC(C)(N)C1 [NER, 1-amino-1,3,3,5,5-pentamethylcyclohexane]	–	–	decreased the duration of immobility	inhibit	locomotor activity (C57/B1 mice [1]; given with vehicle (combination study), 20 mg/kg IP): increased locomotor activity; locomotor activity (C57/B1 mice [1]; monotherapy, doses 5-20 mg/kg IP): increased locomotor activity; also recorded: consistent locomotor stimulation; immobility (C57/B1 mice [2]; 2.5 mg/kg IP, 2.5 mg/kg): increased immobility; also recorded: without effect on immobility time; immobility (C57/B1 mice [2]; 20 mg/kg IP, 20 mg/kg): decreased immobility
COc1ccc(C(CN(C)C)C2(O)CCCCC2)cc1 (stereo not shown) [VEN, venlafaxine]	–	decreased immobility	decrease in the duration of immobility	–	locomotor activity (C57/B1 mice [1]; given with vehicle (combination study), 20 mg/kg IP, 20 mg/kg): increased locomotor activity; also recorded: also observed for the dose of 20 mg/kg in one of two studies; locomotor activity (C57/B1 mice [1]; given with vehicle, 5 mg/kg IP, 5 mg/kg): without effect; locomotor activity (C57/B1 mice [1]; monotherapy, 40 mg/kg IP, 40 mg/kg): increased it; also recorded: stimulated locomotion; immobility (C57/B1 mice [2]; 5 mg/kg IP): decreased immobility
CC12CC3CC(C)(C1)CC(N)(C3)C2 [memantine, 1-amino-3,5-dimethyl adamantane]	–	–	–	inhibit	affinity for 5HT3-mediated current relative to NMDA receptor-mediated currents (5-HT3 receptor; N1E-115 / HEK-293 cells vs rat hippocampal slices): approximately equal affinity; inhibition of NMDA receptor-mediated currents (NMDA receptor): inhibit
